The text below walks through data of ChEMBL document CHEMBL1770127, “2-(2-Aminothiazol-4-yl)pyrrolidine-based tartrate diamides as potent, selective and orally bioavailable TACE inhibitors” (Bioorg Med Chem Lett, 2011).

In data set [1] the target is T1, Disintegrin and metalloproteinase domain-containing protein 17 (Homo sapiens, UniProt P78536). The data set is described as follows: Inhibition of TACE.
Data set [2] is described as follows: AUC in Sprague-Dawley rat at 10 mg/kg, po measured within 6 hrs after post-dosing by LC/MS/MS analysis. Conditions: plasma. Details: time < 6 hr, dose 10 mg/kg, route oral. The data set is classed as ADME, organism-based.
In data set [3] the target is T1, Disintegrin and metalloproteinase domain-containing protein 17. The data set is described as follows: Inhibition of TACE by cell based assay.
A further data set addresses T2, Interstitial collagenase (Homo sapiens, UniProt P03956).
T2 sequence (P03956 whole entry): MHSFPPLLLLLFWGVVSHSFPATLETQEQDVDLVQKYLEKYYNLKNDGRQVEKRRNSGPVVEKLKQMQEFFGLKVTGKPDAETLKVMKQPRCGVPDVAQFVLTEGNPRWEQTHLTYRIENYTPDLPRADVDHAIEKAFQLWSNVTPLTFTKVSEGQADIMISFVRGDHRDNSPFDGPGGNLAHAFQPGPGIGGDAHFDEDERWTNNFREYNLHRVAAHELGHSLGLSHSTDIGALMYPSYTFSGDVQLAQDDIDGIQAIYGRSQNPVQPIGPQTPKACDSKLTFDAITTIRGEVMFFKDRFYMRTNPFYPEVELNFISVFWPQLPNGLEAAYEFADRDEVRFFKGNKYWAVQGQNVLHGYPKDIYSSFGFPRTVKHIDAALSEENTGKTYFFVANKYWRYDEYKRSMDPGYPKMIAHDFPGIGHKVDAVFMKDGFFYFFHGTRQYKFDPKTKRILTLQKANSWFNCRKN
The data set is described as follows: Inhibition of MMP1.

For data set [4], the target named is 72 kDa type IV collagenase (Homo sapiens, UniProt P08253). The data set is described as follows: Inhibition of MMP2.
Another data set addresses Stromelysin-1 (Homo sapiens, UniProt P08254). The data set is described as follows: Inhibition of MMP3.
The target in the next data set is T3, Matrilysin (Homo sapiens, UniProt P09237).
T3 sequence (P09237 whole entry): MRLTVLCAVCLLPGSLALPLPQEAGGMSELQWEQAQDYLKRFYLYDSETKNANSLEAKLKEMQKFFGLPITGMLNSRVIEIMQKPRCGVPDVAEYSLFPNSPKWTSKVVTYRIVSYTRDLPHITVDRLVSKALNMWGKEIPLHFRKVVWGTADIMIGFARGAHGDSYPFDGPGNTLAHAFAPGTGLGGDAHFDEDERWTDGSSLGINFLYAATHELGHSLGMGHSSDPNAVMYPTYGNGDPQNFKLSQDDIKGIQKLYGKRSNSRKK
The data set is described as follows: Inhibition of MMP7.

The target of data set [5] is Matrix metalloproteinase-9 (Homo sapiens, UniProt P14780). The data set is described as follows: Inhibition of MMP9.
The target in the next data set is Collagenase 3 (Homo sapiens, UniProt P45452). The data set is described as follows: Inhibition of MMP13.
The target of data set [6] is Matrix metalloproteinase-14 (Homo sapiens, UniProt P50281). The data set is described as follows: Inhibition of MMP14.
Data set [7] deals with T4, Disintegrin and metalloproteinase domain-containing protein 10 (Homo sapiens, UniProt O14672).
T4 sequence (O14672 whole entry): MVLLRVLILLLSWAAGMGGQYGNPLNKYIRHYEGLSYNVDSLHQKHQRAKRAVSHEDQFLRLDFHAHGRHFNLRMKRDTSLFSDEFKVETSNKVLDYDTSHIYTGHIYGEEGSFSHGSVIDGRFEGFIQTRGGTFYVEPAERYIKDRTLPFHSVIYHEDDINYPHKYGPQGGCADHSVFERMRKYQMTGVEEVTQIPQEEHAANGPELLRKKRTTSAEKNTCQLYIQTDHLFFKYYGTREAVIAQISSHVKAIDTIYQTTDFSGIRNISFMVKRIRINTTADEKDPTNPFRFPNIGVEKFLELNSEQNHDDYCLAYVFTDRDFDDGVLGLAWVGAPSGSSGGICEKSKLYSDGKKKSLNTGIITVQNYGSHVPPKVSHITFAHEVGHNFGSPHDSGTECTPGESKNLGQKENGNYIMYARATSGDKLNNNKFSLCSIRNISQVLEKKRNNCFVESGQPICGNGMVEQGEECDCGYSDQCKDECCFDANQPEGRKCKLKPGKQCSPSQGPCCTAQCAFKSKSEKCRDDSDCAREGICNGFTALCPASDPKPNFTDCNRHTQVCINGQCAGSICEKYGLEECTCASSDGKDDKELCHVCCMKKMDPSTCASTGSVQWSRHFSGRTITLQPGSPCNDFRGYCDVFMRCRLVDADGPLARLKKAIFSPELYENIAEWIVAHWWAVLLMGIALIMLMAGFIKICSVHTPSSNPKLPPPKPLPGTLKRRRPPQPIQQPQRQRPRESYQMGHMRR
The data set is described as follows: Inhibition of ADAM10.

Data set [8] can be described thus: Plasma concentration in Sprague-Dawley rat at 10 mg/kg, po measured after 6 hrs by LC/MS/MS analysis. The data set is classed as ADME, organism-based. On the set-up: dose 10 mg/kg, route oral.

Each structure is given as a SMILES string.

T1 sequence (P78536 whole entry, the tested form may be a part): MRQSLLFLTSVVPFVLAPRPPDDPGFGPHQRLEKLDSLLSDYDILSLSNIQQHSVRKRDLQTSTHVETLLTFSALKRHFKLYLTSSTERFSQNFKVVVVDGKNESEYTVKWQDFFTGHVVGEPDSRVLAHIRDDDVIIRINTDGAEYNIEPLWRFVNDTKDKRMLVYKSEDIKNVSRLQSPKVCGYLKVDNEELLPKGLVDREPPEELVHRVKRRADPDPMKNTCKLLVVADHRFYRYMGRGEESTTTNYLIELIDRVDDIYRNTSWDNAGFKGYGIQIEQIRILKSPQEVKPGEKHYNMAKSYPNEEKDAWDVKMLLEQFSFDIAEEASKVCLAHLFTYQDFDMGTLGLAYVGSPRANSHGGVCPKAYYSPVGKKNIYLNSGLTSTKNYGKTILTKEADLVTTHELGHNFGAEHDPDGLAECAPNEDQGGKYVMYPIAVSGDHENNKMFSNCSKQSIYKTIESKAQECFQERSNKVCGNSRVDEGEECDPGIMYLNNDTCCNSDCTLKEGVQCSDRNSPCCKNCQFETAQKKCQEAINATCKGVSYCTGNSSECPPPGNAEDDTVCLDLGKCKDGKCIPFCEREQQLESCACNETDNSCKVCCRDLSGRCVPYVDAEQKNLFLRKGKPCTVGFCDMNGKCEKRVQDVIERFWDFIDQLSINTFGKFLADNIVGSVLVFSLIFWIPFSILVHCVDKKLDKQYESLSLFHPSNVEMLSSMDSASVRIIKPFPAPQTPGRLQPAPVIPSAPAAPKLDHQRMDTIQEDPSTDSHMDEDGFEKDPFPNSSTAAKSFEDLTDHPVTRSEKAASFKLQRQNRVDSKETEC
Matrix metalloproteinase-9, sequence (P14780 whole entry): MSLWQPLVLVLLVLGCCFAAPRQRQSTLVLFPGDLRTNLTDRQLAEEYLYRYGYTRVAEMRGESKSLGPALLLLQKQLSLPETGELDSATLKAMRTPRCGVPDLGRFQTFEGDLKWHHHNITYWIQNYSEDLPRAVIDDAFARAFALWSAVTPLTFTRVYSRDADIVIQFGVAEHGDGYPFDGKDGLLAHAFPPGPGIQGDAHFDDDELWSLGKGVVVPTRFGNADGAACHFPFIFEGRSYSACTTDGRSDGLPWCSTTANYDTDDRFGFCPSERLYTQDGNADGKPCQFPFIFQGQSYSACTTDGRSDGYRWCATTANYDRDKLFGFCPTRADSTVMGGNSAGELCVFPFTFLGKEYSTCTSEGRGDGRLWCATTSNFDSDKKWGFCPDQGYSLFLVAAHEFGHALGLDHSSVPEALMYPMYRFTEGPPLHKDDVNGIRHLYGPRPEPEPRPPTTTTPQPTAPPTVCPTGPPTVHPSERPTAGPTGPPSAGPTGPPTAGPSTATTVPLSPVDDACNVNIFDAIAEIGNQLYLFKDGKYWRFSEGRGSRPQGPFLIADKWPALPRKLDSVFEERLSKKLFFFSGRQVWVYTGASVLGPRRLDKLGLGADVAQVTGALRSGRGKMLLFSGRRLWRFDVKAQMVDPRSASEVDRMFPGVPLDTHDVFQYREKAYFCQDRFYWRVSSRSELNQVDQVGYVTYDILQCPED
72 kDa type IV collagenase, sequence (P08253 whole entry): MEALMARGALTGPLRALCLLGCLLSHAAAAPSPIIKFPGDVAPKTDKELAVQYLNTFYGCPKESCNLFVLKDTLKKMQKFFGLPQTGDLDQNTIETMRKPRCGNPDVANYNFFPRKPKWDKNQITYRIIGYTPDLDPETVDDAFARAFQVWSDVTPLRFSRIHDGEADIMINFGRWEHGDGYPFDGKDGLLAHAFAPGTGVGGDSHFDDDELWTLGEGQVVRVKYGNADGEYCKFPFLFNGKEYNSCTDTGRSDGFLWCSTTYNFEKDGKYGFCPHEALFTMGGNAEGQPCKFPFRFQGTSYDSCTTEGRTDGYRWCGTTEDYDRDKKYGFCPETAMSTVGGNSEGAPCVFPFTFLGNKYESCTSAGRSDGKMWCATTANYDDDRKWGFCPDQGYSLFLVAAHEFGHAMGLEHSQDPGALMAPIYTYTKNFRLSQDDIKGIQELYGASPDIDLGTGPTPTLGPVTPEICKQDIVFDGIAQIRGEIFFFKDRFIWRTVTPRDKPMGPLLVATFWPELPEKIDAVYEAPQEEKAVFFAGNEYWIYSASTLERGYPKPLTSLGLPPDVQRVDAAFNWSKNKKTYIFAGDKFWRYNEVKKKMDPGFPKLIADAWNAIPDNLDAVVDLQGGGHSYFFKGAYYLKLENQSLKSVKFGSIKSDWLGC
Stromelysin-1, sequence (P08254 whole entry): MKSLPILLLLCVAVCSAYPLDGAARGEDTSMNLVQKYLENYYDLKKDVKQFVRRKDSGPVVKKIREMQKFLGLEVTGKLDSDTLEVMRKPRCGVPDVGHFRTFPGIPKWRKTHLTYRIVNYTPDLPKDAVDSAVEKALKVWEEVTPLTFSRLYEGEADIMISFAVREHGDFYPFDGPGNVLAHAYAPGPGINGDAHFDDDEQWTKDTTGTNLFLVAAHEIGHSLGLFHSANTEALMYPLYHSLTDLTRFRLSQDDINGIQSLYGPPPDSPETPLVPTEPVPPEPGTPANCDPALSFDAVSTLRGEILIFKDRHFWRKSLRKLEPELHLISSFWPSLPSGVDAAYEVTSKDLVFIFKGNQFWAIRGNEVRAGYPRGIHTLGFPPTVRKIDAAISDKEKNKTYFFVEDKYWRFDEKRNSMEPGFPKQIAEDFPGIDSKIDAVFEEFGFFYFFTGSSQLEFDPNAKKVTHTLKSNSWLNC

The Ki is the equilibrium dissociation constant of an inhibitor or competing ligand from its target. A high value points to a looser hold on the target. By AUC is commonly meant concentration integrated over time. Low readings indicate low exposure, high ones high exposure. The term IC50 denotes the concentration that inhibits the measured activity by half. Read a high IC50 as lower potency. `CNc1nc([C@H]2c3ccccc3CN2C(=O)[C@H](O)[C@@H](O)C(=O)N[C@H](C)c2ccc(-n3cccn3)cc2)cs1`: the Ki in data set [1] is 0.001 µM; at Interstitial collagenase, above 40 µM; in [4], above 40 µM; on Stromelysin-1, above 40 µM; at Matrilysin, 13.5 µM; in [5] it was 10.1 µM. Also, the Ki on Collagenase 3 came out at 14.1 µM; in data set [6] it was 16.4 µM; in data set [7], 0.12 µM. The AUC at 6 h in [2] came out at 1.13 µM·h. Further, half-maximal inhibition in data set [3] (IC50) required 0.416 µM.
In the case of `C[C@@H](NC(=O)[C@H](O)[C@@H](O)C(=O)N1CCC[C@@H]1c1csc(NC2CC2)n1)c1ccc(-n2cccn2)cc1`, the Ki is 0.005 µM in data set [1]; above 40 µM on Interstitial collagenase; 20.5 µM in data set [4]; above 40 µM at Stromelysin-1; 18.1 µM at Matrilysin; above 40 µM in data set [5]. In addition, the Ki on Collagenase 3 is above 40 µM; in data set [6] it was above 40 µM; in data set [7] it was 1.35 µM. The compound also returned an AUC at 6 h in data set [2] of 134 µM·h. The compound further showed a concentration at 6 h in [8] of 17.6 µM. For the same compound, the concentration for half-maximal inhibition (IC50) in data set [3] turned out to be 3.02 µM.
